Test results reported in patent US11123337B2, “4-methylsulfonyl-substituted piperidine urea compounds” (MYOKARDIA, INC., priority 2015, dated 2021).

target: bovine cardiac myosin (Bos taurus, UniProt Q9BE39); assay: Myosin activation assay (PK/LDH-coupled ATPase, bovine cardiac myofibrils); type: biochemical; conditions: AC20 = concentration at which total response is increased by twenty percent
Outline: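 Skinned bovine cardiac myofibrils (1 mg/mL) in PIPES/MgCl2 buffer pH 6.8 at free Ca2+ giving ~50% (pCa ~6) or <5% (pCa 10) activation, with 50 μM ATP and 3.3% DMSO. ATPase rate from NADH absorbance at 340 nm (PK/LDH coupling) over 15 min at ambient temperature. AC20/AC50 from a four-parameter fit of DMSO-normalised rates.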

Sequence of bovine cardiac myosin (Q9BE39 whole entry): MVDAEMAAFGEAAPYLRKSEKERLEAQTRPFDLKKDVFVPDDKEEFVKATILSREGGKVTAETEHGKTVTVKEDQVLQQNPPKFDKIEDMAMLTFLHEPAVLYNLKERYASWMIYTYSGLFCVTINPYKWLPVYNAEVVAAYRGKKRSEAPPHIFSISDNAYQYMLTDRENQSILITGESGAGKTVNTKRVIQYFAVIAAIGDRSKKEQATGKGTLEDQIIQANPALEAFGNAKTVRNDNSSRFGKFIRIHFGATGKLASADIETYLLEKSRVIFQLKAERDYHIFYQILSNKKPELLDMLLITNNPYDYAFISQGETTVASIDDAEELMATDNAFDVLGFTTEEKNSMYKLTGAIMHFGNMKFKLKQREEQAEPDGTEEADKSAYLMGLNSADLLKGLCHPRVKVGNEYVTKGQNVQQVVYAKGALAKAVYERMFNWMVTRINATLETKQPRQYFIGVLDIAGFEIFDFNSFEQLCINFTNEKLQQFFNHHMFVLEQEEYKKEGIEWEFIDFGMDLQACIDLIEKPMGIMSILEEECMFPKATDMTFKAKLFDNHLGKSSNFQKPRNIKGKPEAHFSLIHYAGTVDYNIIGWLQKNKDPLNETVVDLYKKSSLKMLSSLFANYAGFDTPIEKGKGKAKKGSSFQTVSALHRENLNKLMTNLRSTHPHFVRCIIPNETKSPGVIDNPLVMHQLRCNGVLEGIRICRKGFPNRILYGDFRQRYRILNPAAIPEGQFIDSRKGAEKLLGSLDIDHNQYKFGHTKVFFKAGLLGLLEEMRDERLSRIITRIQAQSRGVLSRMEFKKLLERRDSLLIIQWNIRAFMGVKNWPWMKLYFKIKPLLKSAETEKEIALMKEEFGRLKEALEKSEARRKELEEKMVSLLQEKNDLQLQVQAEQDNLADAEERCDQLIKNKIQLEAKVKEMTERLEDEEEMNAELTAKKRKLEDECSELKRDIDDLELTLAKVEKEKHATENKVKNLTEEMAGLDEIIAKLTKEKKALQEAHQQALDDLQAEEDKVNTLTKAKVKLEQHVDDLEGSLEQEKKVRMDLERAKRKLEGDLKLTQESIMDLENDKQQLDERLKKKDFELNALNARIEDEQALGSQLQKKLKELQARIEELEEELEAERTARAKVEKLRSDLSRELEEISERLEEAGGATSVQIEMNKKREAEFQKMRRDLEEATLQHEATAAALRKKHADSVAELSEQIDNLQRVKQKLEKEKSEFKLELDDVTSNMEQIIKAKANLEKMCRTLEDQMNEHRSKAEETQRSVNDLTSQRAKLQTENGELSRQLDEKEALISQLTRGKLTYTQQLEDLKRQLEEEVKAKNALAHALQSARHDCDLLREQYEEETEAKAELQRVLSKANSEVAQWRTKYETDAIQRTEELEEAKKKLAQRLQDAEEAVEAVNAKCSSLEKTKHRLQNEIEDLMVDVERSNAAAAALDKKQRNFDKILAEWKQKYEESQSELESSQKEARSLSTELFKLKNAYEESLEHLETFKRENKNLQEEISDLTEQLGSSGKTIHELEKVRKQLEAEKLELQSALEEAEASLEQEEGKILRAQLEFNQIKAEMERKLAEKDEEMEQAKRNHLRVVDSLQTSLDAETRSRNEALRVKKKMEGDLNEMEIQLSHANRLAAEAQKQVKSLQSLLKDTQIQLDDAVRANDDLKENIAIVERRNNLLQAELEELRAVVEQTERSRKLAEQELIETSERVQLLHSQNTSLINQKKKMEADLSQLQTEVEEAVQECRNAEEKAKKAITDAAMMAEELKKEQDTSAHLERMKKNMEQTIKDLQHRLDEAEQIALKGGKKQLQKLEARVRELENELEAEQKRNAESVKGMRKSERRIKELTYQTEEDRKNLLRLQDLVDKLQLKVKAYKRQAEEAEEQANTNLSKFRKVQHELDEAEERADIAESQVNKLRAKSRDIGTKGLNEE
Sequence of bovine cardiac myosin (P85100 whole entry partner): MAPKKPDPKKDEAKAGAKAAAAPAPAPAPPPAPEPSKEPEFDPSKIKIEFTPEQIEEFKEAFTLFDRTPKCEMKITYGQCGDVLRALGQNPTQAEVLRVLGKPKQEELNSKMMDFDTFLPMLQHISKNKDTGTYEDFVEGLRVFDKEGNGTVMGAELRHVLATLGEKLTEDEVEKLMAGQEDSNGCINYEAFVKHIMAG
Sequence of bovine cardiac myosin (Q3SZE5 whole entry partner): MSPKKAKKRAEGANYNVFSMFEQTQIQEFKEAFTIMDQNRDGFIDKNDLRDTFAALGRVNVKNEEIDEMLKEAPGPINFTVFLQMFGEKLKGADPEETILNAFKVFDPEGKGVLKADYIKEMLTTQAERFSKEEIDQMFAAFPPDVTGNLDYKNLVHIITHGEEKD

SMILES	Myosin Activation (AC20)
O=C(Nc1ccns1)N1CCC(C2(S(=O)(=O)c3cc(F)cc(F)c3)CC2)CC1 [Compound 203, 4-(1-((3,5-difluorophenyl)sulfonyl)cyclopropyl)-N-(isothiazol-5-yl)piperidine-1-carboxamide]	+++ (+++ represents myosin activation value AC20 < 2 μM)
Cc1cc(NC(=O)N2CCC(C(C)(C)S(=O)(=O)c3cn(C)nc3C(F)F)CC2)no1 [Compound 144, 4-(2-((3-(difluoromethyl)-1-methyl-1H-pyrazol-4-yl)sulfonyl)propan-2-yl)-N-(5-methylisoxazol-3-yl)piperidine-1-carboxamide]	+ (+ represents myosin activation value AC20 > 5 μM)
Cc1ccc(S(=O)(=O)C(F)(F)C2CCN(C(=O)Nc3ccnnc3)CC2)cn1 [Compound 50, 4-(difluoro((6-methylpyridin-3-yl)sulfonyl)methyl)-N-(pyridazin-4-yl)piperidine-1-carboxamide]	++ (++ represents myosin activation value AC20 from 2 μM-5 μM)
Cn1cc(S(=O)(=O)C2(C3CCN(C(=O)Nc4ccnnc4)CC3)CCC2)c(C(F)F)n1 [Compound 170, 4-(1-((3-(difluoromethyl)-1-methyl-1H-pyrazol-4-yl)sulfonyl)cyclobutyl)-N-(pyridazin-4-yl)piperidine-1-carboxamide]	+++ (+++ represents myosin activation value AC20 < 2 μM)
O=C(Nc1ccnnc1)N1CCC(C(F)(F)S(=O)(=O)c2cnn3ccccc23)CC1 [Compound 93, 4-(difluoro(pyrazolo[1,5-a]pyridin-3-ylsulfonyl)methyl)-N-(pyridazin-4-yl)piperidine-1-carboxamide]	++ (++ represents myosin activation value AC20 from 2 μM-5 μM)
Cn1cnc(S(=O)(=O)C(F)(F)C2CCN(C(=O)Nc3ccnnc3)CC2)c1 [Compound 84, 4-(difluoro((1-methyl-1H-imidazol-4-yl)sulfonyl)methyl)-N-(pyridazin-4-yl)piperidine-1-carboxamide]	+ (+ represents myosin activation value AC20 > 5 μM)
COc1ncccc1S(=O)(=O)C(C)(C)C1CCN(C(=O)Nc2ccnnc2)CC1 [Compound 190, 4-(2-((2-methoxypyridin-3-yl)sulfonyl)propan-2-yl)-N-(pyridazin-4-yl)piperidine-1-carboxamide]	++ (++ represents myosin activation value AC20 from 2 μM-5 μM)
Cn1nccc1S(=O)(=O)C1(C2CCN(C(=O)Nc3cnns3)CC2)CCC1 [Compound 175, 4-(1-((1-methyl-1H-pyrazol-5-yl)sulfonyl)cyclobutyl)-N-(1,2,3-thiadiazol-5-yl)piperidine-1-carboxamide]	+++ (+++ represents myosin activation value AC20 < 2 μM)
O=C(Nc1ccnnc1)N1CCC(C(F)(F)S(=O)(=O)c2cccc3c2COC3)CC1 [Compound 71, 4-(((1,3-dihydroisobenzofuran-4-yl)sulfonyl)difluoromethyl)-N-(pyridazin-4-yl)piperidine-1-carboxamide]	++ (++ represents myosin activation value AC20 from 2 μM-5 μM)
Cn1cc(S(=O)(=O)[C@@](C)(F)C2CCN(C(=O)Nc3cn[nH]c3)CC2)c(C(F)F)n1 [Compound 289, (R)-4-(1-((3-(difluoromethyl)-1-methyl-1H-pyrazol-4-yl)sulfonyl)-1-fluoroethyl)-N-(1H-pyrazol-4-yl)piperidine-1-carboxamide]	++ (++ represents myosin activation value AC20 from 2 μM-5 μM)
Cc1nocc1NC(=O)N1CCC(C(C)(F)S(=O)(=O)c2cccc(F)c2)CC1 (centres unmarked) [Compound 238, 4-(1-fluoro-1-((3-fluorophenyl)sulfonyl)ethyl)-N-(3-methylisoxazol-4-yl)piperidine-1-carboxamide]	+ (+ represents myosin activation value AC20 > 5 μM)
O=C(Nc1ccnnc1)N1CCC(C(F)(F)S(=O)(=O)c2ccc(C3CC3)nc2)CC1 [Compound 60, 4-(((6-cyclopropylpyridin-3-yl)sulfonyl)difluoromethyl)-N-(pyridazin-4-yl)piperidine-1-carboxamide]	++ (++ represents myosin activation value AC20 from 2 μM-5 μM)
CCn1nccc1S(=O)(=O)C(C)(F)C1CCN(C(=O)Nc2ccnnc2)CC1 (centres unmarked) [Compound 269, 4-(1-((1-ethyl-1H-pyrazol-5-yl)sulfonyl)-1-fluoroethyl)-N-(pyridazin-4-yl)piperidine-1-carboxamide]	++ (++ represents myosin activation value AC20 from 2 μM-5 μM)
Cn1nc(C(F)F)cc1S(=O)(=O)C(C)(C)C1CCN(C(=O)Nc2ccnnc2)CC1 [Compound 122, 4-(2-((3-(difluoromethyl)-1-methyl-1H-pyrazol-5-yl)sulfonyl)propan-2-yl)-N-(pyridazin-4-yl)piperidine-1-carboxamide]	+++ (+++ represents myosin activation value AC20 < 2 μM)
COc1ccc(Cl)c(S(=O)(=O)C(F)(F)C2CCN(C(=O)Nc3ccnnc3)CC2)c1 [Compound 72, 4-(((2-chloro-5-methoxyphenyl)sulfonyl)difluoromethyl)-N-(pyridazin-4-yl)piperidine-1-carboxamide]	+++ (+++ represents myosin activation value AC20 < 2 μM)
Cn1nccc1S(=O)(=O)C(C)(C)C1CCN(C(=O)Nc2ccnc(F)c2)CC1 [Compound 134, N-(2-fluoropyridin-4-yl)-4-(2-((1-methyl-1H-pyrazol-5-yl)sulfonyl)propan-2-yl)piperidine-1-carboxamide]	++ (++ represents myosin activation value AC20 from 2 μM-5 μM)
Cn1nc(C(F)(F)F)cc1S(=O)(=O)C(C)(F)C1CCN(C(=O)Nc2ccon2)CC1 (centres unmarked) [Compound 249, 4-(1-fluoro-1-((1-methyl-3-(trifluoromethyl)-1H-pyrazol-5-yl)sulfonyl)ethyl)-N-(isoxazol-3-yl)piperidine-1-carboxamide]	++ (++ represents myosin activation value AC20 from 2 μM-5 μM)
CN(C)c1ncccc1S(=O)(=O)C(F)(F)C1CCN(C(=O)Nc2ccnnc2)CC1 [Compound 96, 4-(((2-(dimethylamino)pyridin-3-yl)sulfonyl)difluoromethyl)-N-(pyridazin-4-yl)piperidine-1-carboxamide]	+ (+ represents myosin activation value AC20 > 5 μM)
CC(F)(C1CCN(C(=O)Nc2ccon2)CC1)S(=O)(=O)c1ccc(C#N)cc1 (centres unmarked) [Compound 283, 4-(1-((4-cyanophenyl)sulfonyl)-1-fluoroethyl)-N-(isoxazol-3-yl)piperidine-1-carboxamide]	++ (++ represents myosin activation value AC20 from 2 μM-5 μM)
Cn1nccc1S(=O)(=O)C(C)(F)C1CCN(C(=O)Nc2ccnc(F)c2)CC1 (centres unmarked) [Compound 226, 4-(1-fluoro-1-((1-methyl-1H-pyrazol-5-yl)sulfonyl)ethyl)-N-(2-fluoropyridin-4-yl)piperidine-1-carboxamide]	+ (+ represents myosin activation value AC20 > 5 μM)
Cc1ccc(NC(=O)N2CCC(C(C)(C)S(=O)(=O)c3cc(C(F)F)nn3C)CC2)cn1 [Compound 107, 4-(2-((3-(difluoromethyl)-1-methyl-1H-pyrazol-5-yl)sulfonyl)propan-2-yl)-N-(6-methylpyridin-3-yl)piperidine-1-carboxamide]	++ (++ represents myosin activation value AC20 from 2 μM-5 μM)
O=C(Nc1ccnnc1)N1CCC(C(F)(F)S(=O)(=O)c2ccc(O)nc2)CC1 [Compound 88, 4-(difluoro((6-hydroxypyridin-3-yl)sulfonyl)methyl)-N-(pyridazin-4-yl)piperidine-1-carboxamide]	+ (+ represents myosin activation value AC20 > 5 μM)
CC(C)(C1CCN(C(=O)Nc2ccnnc2)CC1)S(=O)(=O)c1ccn2nccc2c1 [Compound 191, 4-(2-(pyrazolo[1,5-a]pyridin-5-ylsulfonyl)propan-2-yl)-N-(pyridazin-4-yl)piperidine-1-carboxamide]	+++ (+++ represents myosin activation value AC20 < 2 μM)
O=C(Nc1ccnnc1)N1CCC(C(F)(F)S(=O)(=O)c2ccccc2-n2cccn2)CC1 [Compound 95, 4-(((2-(1H-pyrazol-1-yl)phenyl)sulfonyl)difluoromethyl)-N-(pyridazin-4-yl)piperidine-1-carboxamide]	+ (+ represents myosin activation value AC20 > 5 μM)
CC(F)(C1CCN(C(=O)Nc2cnns2)CC1)S(=O)(=O)c1cccc(F)c1 (centres unmarked) [Compound 45, 4-(1-fluoro-1-((3-fluorophenyl)sulfonyl)ethyl)-N-(1,2,3-thiadiazol-5-yl)piperidine-1-carboxamide]	+++ (+++ represents myosin activation value AC20 < 2 μM)
N#Cc1ccccc1S(=O)(=O)C(F)(F)C1CCN(C(=O)Nc2ccnnc2)CC1 [Compound 54, 4-(((2-cyanophenyl)sulfonyl)difluoromethyl)-N-(pyridazin-4-yl)piperidine-1-carboxamide]	++ (++ represents myosin activation value AC20 from 2 μM-5 μM)
CC(C)(C1(O)CCN(C(=O)Nc2ccnnc2)CC1)S(=O)(=O)c1cccc(F)c1 [Compound 163, 4-(2-((3-fluorophenyl)sulfonyl)propan-2-yl)-4-hydroxy-N-(pyridazin-4-yl)piperidine-1-carboxamide]	+ (+ represents myosin activation value AC20 > 5 μM)
CC(F)(C1CCN(C(=O)Nc2ccon2)CC1)S(=O)(=O)c1cccc(F)c1 (centres unmarked) [Compound 234, 4-(1-fluoro-1-((3-fluorophenyl)sulfonyl)ethyl)-N-(isoxazol-3-yl)piperidine-1-carboxamide]	+++ (+++ represents myosin activation value AC20 < 2 μM)
CC(C)(C1CCN(C(=O)Nc2ccc(F)nc2)CC1)S(=O)(=O)c1ccc(C#N)cc1 [Compound 109, 4-(2-((4-cyanophenyl)sulfonyl)propan-2-yl)-N-(6-fluoropyridin-3-yl)piperidine-1-carboxamide]	+ (+ represents myosin activation value AC20 > 5 μM)
